From ChEMBL document CHEMBL1201862, “PubChem BioAssay data set” (2004)
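Cultured in 96-well plates, cells were exposed to test compound for 48 hours across five concentrations. Here, GI50 denotes the concentration required for 50% inhibition of growth.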 The source made the active and inactive calls. No stated cut-off is given here; in the data, active = GI50 up to about 1.1 µM and inactive = higher.

Assays:
Test in all cases: DTP human tumour cell line panel, 48 h
SR = tested on: SR
NCI-H522 = tested on: NCI-H522
UACC-257 = tested on: UACC-257
IGROV-1 = tested on: IGROV-1
M14 = tested on: M14
UO-31 = tested on: UO-31
TK-10 = tested on: TK-10
RXF 393 = tested on: RXF 393
LOX IMVI = tested on: LOX IMVI
HL-60 = tested on: HL-60
NCI-H23 = tested on: NCI-H23
NCI-H226 = tested on: NCI-H226
DU-145 = tested on: DU-145
SK-OV-3 = tested on: SK-OV-3
SN12C = tested on: SN12C
MCF7 = tested on: MCF7
HCT-116 = tested on: HCT-116
MDA-MB-231 = tested on: MDA-MB-231
SK-MEL-5 = tested on: SK-MEL-5
SF-268 = tested on: SF-268
CAKI-1 = tested on: CAKI-1
SK-MEL-2 = tested on: SK-MEL-2
NCI-H460 = tested on: NCI-H460
OVCAR-8 = tested on: OVCAR-8
PC-3 = tested on: PC-3
OVCAR-5 = tested on: OVCAR-5
SNB-19 = tested on: SNB-19
Hs-578T = tested on: Hs-578T
KM12 = tested on: KM12
U-251 = tested on: U-251
BT-549 = tested on: BT-549
786-0 = tested on: 786-0
A549 = tested on: A549
A498 = tested on: A498
MDA-N = tested on: MDA-N
MOLT-4 = tested on: MOLT-4
HOP-62 = tested on: HOP-62
SK-MEL-28 = tested on: SK-MEL-28
Malme-3M = tested on: Malme-3M
OVCAR-4 = tested on: OVCAR-4
COLO 205 = tested on: COLO 205
HCC 2998 = tested on: HCC 2998
ACHN = tested on: ACHN
SF-539 = tested on: SF-539
MDA-MB-435 = tested on: MDA-MB-435
HT-29 = tested on: HT-29
SW-620 = tested on: SW-620
OVCAR-3 = tested on: OVCAR-3
EKVX = tested on: EKVX
NCI/ADR-RES = tested on: NCI/ADR-RES
HOP-92 = tested on: HOP-92
CCRF-CEM = tested on: CCRF-CEM
HCT-15 = tested on: HCT-15
UACC-62 = tested on: UACC-62
SNB-75 = tested on: SNB-75
SF-295 = tested on: SF-295
K562 = tested on: K562
RPMI-8226 = tested on: RPMI-8226

Measured: GI50

c1ccc(CCNCc2ccco2)nc1
active: SR 1 µM
> 100 µM: HCT-15
inactive: NCI-H522 > 100 µM | UACC-257 > 100 µM | IGROV-1 > 100 µM | M14 > 100 µM | UO-31 > 100 µM | TK-10 > 100 µM | RXF 393 > 100 µM | LOX IMVI > 100 µM | HL-60 > 100 µM | NCI-H23 > 100 µM | NCI-H226 > 100 µM | DU-145 > 100 µM | SK-OV-3 > 100 µM | SN12C > 100 µM | MCF7 > 83.9 µM | HCT-116 > 100 µM | MDA-MB-231 > 100 µM | SK-MEL-5 > 100 µM | SF-268 > 100 µM | CAKI-1 > 100 µM | SK-MEL-2 > 100 µM | NCI-H460 > 100 µM | OVCAR-8 > 100 µM | PC-3 > 100 µM | OVCAR-5 > 100 µM | SNB-19 > 100 µM | Hs-578T > 100 µM | KM12 > 100 µM | U-251 > 100 µM | BT-549 > 100 µM | 786-0 > 100 µM | A549 > 100 µM | A498 > 100 µM | MDA-N > 100 µM | MOLT-4 > 100 µM | HOP-62 > 100 µM | SK-MEL-28 > 100 µM | Malme-3M > 100 µM | OVCAR-4 > 100 µM | COLO 205 > 100 µM | HCC 2998 > 100 µM | ACHN > 100 µM | SF-539 > 100 µM | MDA-MB-435 > 100 µM | HT-29 > 100 µM | SW-620 > 100 µM | OVCAR-3 > 100 µM | EKVX > 100 µM | NCI/ADR-RES > 100 µM | HOP-92 > 100 µM | CCRF-CEM > 48.6 µM | UACC-62 > 100 µM | SNB-75 > 77.4 µM | SF-295 > 100 µM

O=C(c1cccc(C(=O)c2ccc3c4c(cccc24)C(=O)N(c2ccccc2)C3=O)c1)c1ccc2c3c(cccc13)C(=O)N(c1ccccc1)C2=O
> 100 µM: HCT-15
inactive: NCI-H522 > 100 µM | UACC-257 72.8 µM | IGROV-1 63.7 µM | M14 > 100 µM | UO-31 > 100 µM | TK-10 69.8 µM | RXF 393 > 100 µM | LOX IMVI 23.3 µM | NCI-H23 > 100 µM | NCI-H226 > 100 µM | DU-145 > 100 µM | K562 > 100 µM | SK-OV-3 > 100 µM | SN12C > 100 µM | MCF7 28.2 µM | HCT-116 > 100 µM | MDA-MB-231 67.1 µM | SK-MEL-5 > 100 µM | SF-268 > 100 µM | CAKI-1 > 100 µM | NCI-H460 > 100 µM | OVCAR-8 > 100 µM | PC-3 > 100 µM | OVCAR-5 > 100 µM | SNB-19 > 100 µM | Hs-578T 52.8 µM | KM12 > 100 µM | U-251 > 100 µM | BT-549 > 100 µM | 786-0 > 100 µM | RPMI-8226 > 100 µM | A549 > 100 µM | A498 17.3 µM | MDA-N > 100 µM | MOLT-4 > 100 µM | HOP-62 88.7 µM | SK-MEL-28 > 100 µM | Malme-3M > 100 µM | OVCAR-4 > 100 µM | COLO 205 > 100 µM | HCC 2998 > 100 µM | ACHN > 100 µM | SF-539 > 100 µM | MDA-MB-435 > 100 µM | HT-29 > 100 µM | SW-620 > 100 µM | OVCAR-3 > 100 µM | EKVX 38 µM | NCI/ADR-RES > 100 µM | HOP-92 42.3 µM | UACC-62 40 µM | SNB-75 > 100 µM | SF-295 71.9 µM
